Test results as given in patent US7659289B2, “Hydroxyethylene-based β-secretase inhibitors and use thereof” (CoMentis, Inc., priority 2004, dated 2010).

Experiments:
memapsin 2 = memapsin 2 (Homo sapiens, UniProt P56817); assay: Inhibition of memapsin 2 beta-secretase activity toward fluorogenic substrate FS-2; assay type: biochemical; conditions: pH 4, 37° C., 20 minutes pre-incubation, fluorogenic substrate FS-2, tight-binding model; read-out: M2 Ki
Experimental: Potency of compounds were determined by measurement of their inhibition of memapsin 2 activity toward a fluorescent substrate. […] Briefly, assays were performed at pH 4, 37° C., by pre-incubation of memapsin 2 enzyme with compound for 20 minutes. Activity measure was initiated by addition of a fluorogenic substrate FS-2 (Bachem Americas, Torrance, Calif.). Fluorescent signal increase over time was measured as a rate of hydrolysis of the peptide substrate.

Cathepsin D = Cathepsin D (Homo sapiens, UniProt P07339); assay: Inhibition of cathepsin D activity (MALDI-TOF, substrate peptide […]); assay type: biochemical; conditions: pH 4.1, 37 degrees C., read-out: Cath D Ki
Sequence of Cathepsin D (P07339 65-412, species assumed): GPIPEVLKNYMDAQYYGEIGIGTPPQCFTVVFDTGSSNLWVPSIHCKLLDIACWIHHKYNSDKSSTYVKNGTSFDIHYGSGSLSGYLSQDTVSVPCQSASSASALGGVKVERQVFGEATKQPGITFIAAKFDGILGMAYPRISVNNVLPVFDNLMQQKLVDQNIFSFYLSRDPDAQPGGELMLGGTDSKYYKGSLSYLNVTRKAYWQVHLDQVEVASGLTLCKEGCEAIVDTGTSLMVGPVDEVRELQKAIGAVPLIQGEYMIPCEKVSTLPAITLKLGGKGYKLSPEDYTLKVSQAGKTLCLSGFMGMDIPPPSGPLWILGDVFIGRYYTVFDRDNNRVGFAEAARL
Experimental: (§1) After equilibration at 37 degrees C., the reactions were initiated by the addition of an aliquot of memapsin 2. Aliquots were removed at time intervals, and combined with an equal volume of MALDI-TOF matrix (α-hydroxycinnamic acid in acetone, 20 mg/ml) and immediately spotted in duplicate onto a stainless-steel MALDI sample plate. MALDI-TOF mass spectrometry was performed on a PE Biosystems Voyager DE instrument at the Molecular Biology Resource Center on campus. The instrument was operated at 25,000 accelerating volts in positive mode with a 150 ns delay. Ions with a mass-to-charge ratio (m/z) were detected in the range of 650-2000 atomic mass units. Data was analyzed by the Voyager Data Explorer module to obtain ion intensity data for mass species of substrates and corresponding products in a given mixture. Relative product formation was calculated as the ratio of signal intensity of the product to the sum of signal intensities of both product and the corresponding substrate. Relative product formed per unit time was obtained from non-linear regression analysis of the data representing the initial 15% formation of product using the model: 1−e^−kT,
(§2) where k is the relative hydrolytic rate constant and T is time in seconds. Initial rates were expressed relative to uninhibited controls and fit to a tight-binding model of competitive inhibition as above.

Memapsin 1 = biological target: T1, Memapsin 1 (Homo sapiens, UniProt Q9Y5Z0); assay: Inhibition of memapsin 1 beta-secretase activity (MALDI-TOF, substrate peptide […]); assay type: biochemical; conditions: pH 4.1, 37 degrees C., read-out: M1 Ki
T1 sequence (Q9Y5Z0 63-473 limits assumed): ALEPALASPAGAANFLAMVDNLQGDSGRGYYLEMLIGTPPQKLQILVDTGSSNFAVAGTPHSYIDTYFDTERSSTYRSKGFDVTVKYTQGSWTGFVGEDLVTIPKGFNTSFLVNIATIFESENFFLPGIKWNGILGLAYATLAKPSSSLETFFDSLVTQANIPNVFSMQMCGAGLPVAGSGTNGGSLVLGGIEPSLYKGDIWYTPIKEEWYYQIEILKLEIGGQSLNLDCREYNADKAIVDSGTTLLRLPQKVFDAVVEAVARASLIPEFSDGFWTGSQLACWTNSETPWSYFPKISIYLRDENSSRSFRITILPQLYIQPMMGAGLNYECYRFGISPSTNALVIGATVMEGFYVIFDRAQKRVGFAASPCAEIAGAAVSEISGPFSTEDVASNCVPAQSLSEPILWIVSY
Experimental: as §1, §2

Aβ production = assay: Cellular Aβ IC50 determination (Aβ40 sandwich ELISA); assay type: cell-based; conditions: Cricetulus griseus; Aβ40, Chinese hamster ovary cells over-expressing human APP695 with London and Swedish mutations, 24 h incubation
Outline: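 CHO cells over-expressing human APP695 (London and Swedish mutations) were treated 48 h after seeding with serially diluted compound, top final concentration near 4 μM (0.4% DMSO), for 24 h at 37 °C, 5% CO2. Aβ40 in medium was measured by sandwich ELISA; values relative to control were fit to a 4-parameter IC50 model.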

Sequence of memapsin 2 (P56817 46-501): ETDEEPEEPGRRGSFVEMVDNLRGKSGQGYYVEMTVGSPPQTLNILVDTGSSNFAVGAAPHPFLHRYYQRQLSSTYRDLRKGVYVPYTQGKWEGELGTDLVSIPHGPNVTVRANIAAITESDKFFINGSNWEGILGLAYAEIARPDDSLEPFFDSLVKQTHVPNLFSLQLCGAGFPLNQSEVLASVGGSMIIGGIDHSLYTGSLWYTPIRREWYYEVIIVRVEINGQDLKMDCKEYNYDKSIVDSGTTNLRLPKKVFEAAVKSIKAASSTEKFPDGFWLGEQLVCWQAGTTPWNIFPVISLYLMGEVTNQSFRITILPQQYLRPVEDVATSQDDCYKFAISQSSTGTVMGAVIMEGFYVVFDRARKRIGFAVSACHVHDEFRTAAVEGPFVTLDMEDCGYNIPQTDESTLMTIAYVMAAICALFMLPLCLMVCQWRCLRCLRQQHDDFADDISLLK

| SMILES | Ki (memapsin 2) [nM] | Ki (Cathepsin D) [nM] | Ki (Memapsin 1) [nM] | IC50 (Aβ production) [nM] |
| --- | --- | --- | --- | --- |
| COC(=O)NC[C@H](NC(=O)OCc1nc(C)cs1)C(=O)N[C@@H](CC(C)C)[C@@H](O)C[C@@H](C)C(=O)N[C@H](C(=O)NCC(C)C)C(C)C | < 100 | < 100 | < 100 | < 6000 |
| Cc1csc(COC(=O)N[C@@H](CNC(=O)OC(C)(C)C)C(=O)N[C@@H](CC(C)C)[C@@H](O)C[C@@H](C)C(=O)N[C@H](C(=O)NCC(C)C)C(C)C)n1 | 100 to 600 | 100 to 600 | 100 to 600 | > 100000 |
| Cc1csc(C[C@H](C)C(=O)N[C@@H](CNC(=O)OC(C)(C)C)C(=O)N[C@@H](CC(C)C)[C@@H](O)C[C@@H](C)C(=O)N[C@H](C(=O)NCC(C)C)C(C)C)n1 [tert-butyl (S)-3-((4S,5S,7R)-5-hydroxy-8-((S)-1-(isobutylamino)-3-methyl-1-oxobutan-2-ylamino)-2,7-dimethyl-8-oxooctan-4-ylamino)-2-((S)-2-methyl-3-(4-methylthiazol-2-yl)propanamido)-3-oxopropylcarbamate] | < 100 | < 100 | 100 to 600 | < 6000 |
| Cc1csc(CNC(=O)C[C@H](NC(=O)OC(C)(C)C)C(=O)N[C@@H](CC(C)C)[C@@H](O)C[C@@H](C)C(=O)N[C@H](C(=O)NCC(C)C)C(C)C)n1 [tert-butyl (5S,8S,9S,11R,14S)-9-hydroxy-8-isobutyl-14-isopropyl-11,18-dimethyl-1-(4-methylthiazol-2-yl)-3,6,12,15-tetraoxo-2,7,13,16-tetraazanonadecan-5-ylcarbamate] | 100 to 600 | – | > 600 | – |
| Cc1csc(COC(=O)N[C@@H](CNS(C)(=O)=O)C(=O)N[C@@H](CC(C)C)[C@@H](O)C[C@@H](C)C(=O)N[C@H](C(=O)NCC(C)C)C(C)C)n1 | < 100 | 100 to 600 | 100 to 600 | > 100000 |
| Cc1csc(CNC(=O)C[C@@H](NC(=O)OC(C)(C)C)C(=O)N[C@@H](CC(C)C)[C@@H](O)C[C@@H](C)C(=O)N[C@H](C(=O)NCC(C)C)C(C)C)n1 [tert-butyl (5R,8S,9S,11 R,14S)-9-hydroxy-8-isobutyl-14-isopropyl-11,18-dimethyl-1-(4-methylthiazol-2-yl)-3,6,12,15-tetraoxo-2,7,13,16-tetraazanonadecan-5-ylcarbamate] | < 100 | – | 100 to 600 | – |
| Cc1csc(COC(=O)N[C@@H](CNC(=O)O[C@H]2CCOC2)C(=O)N[C@@H](CC(C)C)[C@@H](O)C[C@@H](C)C(=O)N[C@H](C(=O)NCC(C)C)C(C)C)n1 | 100 to 600 | 100 to 600 | 100 to 600 | 6000 to 100000 |
| CC[C@H](C[C@H](O)[C@H](CC(C)C)NC(=O)[C@H](CNC(=O)OC(C)(C)C)NC(=O)[C@@H](C)Cc1nc(C)cs1)C(=O)N[C@H](C(=O)NCC(C)C)C(C)C [tert-butyl (S)-3-((4S,5S,7R)-5-hydroxy-7-((S)-1-(isobutylamino)-3-methyl-1-oxobutan-2-ylcarbamoyl)-2-methylnonan-4-ylamino)-2-((S)-2-methyl-3-(4-methylthiazol-2-yl)propanamido)-3-oxopropylcarbamate] | < 100 | < 100 | – | < 6000 |
